Measurements: patent US6034087A, “Nucleoside derivatives and process for preparing thereof” (priority 1994, dated 2000)
Converted amounts (≈) assume the structure as drawn.

Tests used:
[1] = tested on: HBV; assay: Anti-HBV effect in HepG2 2. 2. 15 cell line; format: cell-based, Hepatitis B Virus
Procedure: (§1) Anti-HBV effect of 1-(5-hydroxymethyl-1,4-dioxan-2-yl)thymine, one of the desired product of the present invention prepared in Example 38, was tested in HepG2 2. 2. 15 cell line. The resultant Effective Concentration (Ec50, EC90), Cytotoxic Concentration (CC50) and Selectivity Index (SI) are shown in the Table below.

[2] = Cytotoxic Concentration in HepG2 2. 2. 15 cell line; format: cell-based; conditions: human, hepg2 2.2.15 cells
Procedure: as §1

[3] = tested on: HBV; conditions: literature report; cited from earlier work

Row | Compound | anti-HBV activity (in words) [3] | also measured
1 | Cc1cn(C2COC(CO)CO2)c(=O)[nH]c1=O (centres unmarked) [Compound of Ex.38, 1-(5-hydroxymethyl-1,4-dioxan-2-yl)thymine] |  | SI (CC50/EC50) (Selectivity Index) ([1]; CC50/EC50): 188; EC50 ([1]; Hepatitis B virus, HepG2 2.2.15, read-out: EC50 (Effective Concentration)): 4.5 µg/mL (≈ 18.6 µM); EC90 ([1]; Hepatitis B virus, HepG2 2.2.15, read-out: EC90 (Effective Concentration)): 15 µg/mL (≈ 61.9 µM); CC50 [2]: 846 µg/mL (≈ 3490 µM)
2 | Nc1ccn(C2CCC(CO)O2)c(=O)n1 [2',3'-dideoxy-β-L-cytidine] | showing anti-HBV activity | 
3 | Nc1ccn([C@H]2CS[C@@H](CO)O2)c(=O)n1 [2',3'-dideoxy-3'-thiacytidine] | showing anti-HBV activity | 
4 | Nc1nc(=O)n(C2CCC(CO)O2)cc1F [2'3'-dideoxy-β-L-5-fluoro-cytidine] | showing anti-HBV activity | 
5 | Nc1nc(=O)n([C@H]2CS[C@@H](CO)O2)cc1F [5-fluoro-2',3'-dideoxy-3'-thiacytidine] | showing anti-HBV activity | 
